In one test the target is human M4 receptor (Homo sapiens (Human), UniProt P08173). Nature of the test: In vitro M4 functional assay (intracellular calcium, FLiPR Tetra). In kind it is cell-based. To be noted: for pEC50: CHOK1 cells stably expressing human M4 receptor and Gα16, calcium flux; for Emax: relative efficacy to an EC100 concentration of acetylcholine, read-out: M4 % RE. How it is done: (§1) In Vitro M4 &M2 Functional Assay
(§2) The functional activity of compounds at the M4 and M2 receptors was determined by measuring changes in the level of intracellular calcium ions caused by signalling cascades mediated by the receptor. Intracellular Calcium levels were measured using a calcium sensitive fluorescent dye, calcium 5 (Molecular Devices) The changes in fluorescence were monitored by a fluorescent imager, FLiPR Tetra (Molecular devices). Increases in intracellular calcium were readily detected upon activation of both receptors by the muscarinic receptor agonist Acetylcholine.
(§3) CHOK1 cells stably expressing human M4 or M2 receptor and co-expressing the accessory g-protein Gα16 were routinely grown as monolayers in Hams-F12 medium (Invitrogen) supplemented with 10% foetal bovine serum (FBS) (Hyclone), 500 ug/mL Geneticin and 250 ug/mL zeocin (both invitrogen) in 5% CO2 at 37° C. Once confluent is cells cryopreserved by freezing at −186° C. in freezing solution (90% FBS 10% DMSO) (Sigma-Aldrich Co.). Twenty-four hours prior to testing cells resuscitated and freezing media removed via centrifugation, cells then seeded in a black walled clear bottom 384 well plates (Corning) at a density of 15,000 cells/well in Hams F12 media supplemented with 10% FBS. On the day of assay, growth media was removed and replaced with 63 μl of Calcium 5 dye solution (Molecular Devices) in assay buffer (HBSS, 20 mM HEPES, 0.1% BSA, 1 mM Probenecid pH7.4 (Sigma-Aldrich Co.)) per well (each vial of Calcium 5 resuspended in 27 mL of assay buffer). Cells were then incubated for 45 minutes at 37° C., 5% CO2. Compound was serially diluted in DMSO (log/half log) before being diluted 1:20 with assay buffer. 7 μl of compound diluted in assay buffer was then added to cells on FLiPR tetra and fluorescence intensity measured for 5 minutes. EC50 values for compounds were determined from ten point half log scale dose-response studies and represent the concentration of compound required to […] maximal response. Curves were generated using the average of duplicate wells for each data point and analyzed using non-linear regression of four parameter dose response. Percentage Relative efficacy (RE) to an EC100 concentration of acetylcholine was reported for all compounds. The results are set out in Table 3 below in which the term “No Response” means that there was no significant response of calcium flux in the assay indicative of agonism.
A general note: Calcium assays in cells follow changes in intracellular calcium, usually with a dye or a luminescent sensor.

The target of a further test is human M2 receptor (Homo sapiens (Human), UniProt P08172). As to the kind of experiment: In vitro M2 functional assay (intracellular calcium, FLiPR Tetra). To be noted: for pEC50 / M2 EC50: CHOK1 cells stably expressing human M2 receptor and Gα16, calcium flux, No Response = no significant response of calcium flux indicative of agonism; for activation at 10 µM: response at 10 μM compound, relative to an EC100 concentration of acetylcholine, read-out: M2 % RE @ 10 μM; for M2 % RE: relative efficacy to an EC100 concentration of acetylcholine. Format: cell-based. The method, then: as §1, §2, §3
human M2 receptor, sequence (P08172 whole entry): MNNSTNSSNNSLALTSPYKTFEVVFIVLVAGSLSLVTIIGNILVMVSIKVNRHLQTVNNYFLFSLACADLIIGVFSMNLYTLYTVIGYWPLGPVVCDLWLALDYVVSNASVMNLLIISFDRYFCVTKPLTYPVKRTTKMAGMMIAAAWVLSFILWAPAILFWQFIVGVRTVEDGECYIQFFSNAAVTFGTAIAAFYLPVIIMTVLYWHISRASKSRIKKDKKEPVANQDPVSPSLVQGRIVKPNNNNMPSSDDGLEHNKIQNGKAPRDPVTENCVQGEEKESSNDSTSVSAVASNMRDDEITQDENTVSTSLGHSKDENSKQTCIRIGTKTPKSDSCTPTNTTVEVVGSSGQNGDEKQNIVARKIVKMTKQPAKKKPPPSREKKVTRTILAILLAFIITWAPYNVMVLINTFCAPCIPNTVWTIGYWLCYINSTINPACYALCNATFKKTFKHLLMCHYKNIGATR

pEC50: −log10 of the molar value.

human M4 receptor, sequence (P08173 whole entry): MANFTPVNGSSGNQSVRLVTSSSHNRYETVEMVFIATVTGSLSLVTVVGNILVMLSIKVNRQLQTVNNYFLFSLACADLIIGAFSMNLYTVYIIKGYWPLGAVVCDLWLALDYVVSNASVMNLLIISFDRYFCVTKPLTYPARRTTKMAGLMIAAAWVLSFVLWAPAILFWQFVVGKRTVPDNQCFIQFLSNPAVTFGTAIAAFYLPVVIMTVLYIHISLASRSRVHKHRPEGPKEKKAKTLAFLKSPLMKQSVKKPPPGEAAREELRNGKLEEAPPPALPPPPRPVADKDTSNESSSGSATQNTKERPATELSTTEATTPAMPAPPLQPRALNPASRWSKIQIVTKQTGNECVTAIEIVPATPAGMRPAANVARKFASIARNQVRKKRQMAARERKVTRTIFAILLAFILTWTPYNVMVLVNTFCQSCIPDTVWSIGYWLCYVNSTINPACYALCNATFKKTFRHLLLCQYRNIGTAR

What is called pEC50 is the negative decadic logarithm of the EC50, by convention in mol/L. As for `CCOC(=O)N1CCCC(N2CCC(n3nccc3-c3ccnn3C)CC2)CC1` (stereo not shown) [Example 7, Ethyl 4-{4-[5-(1-methyl-1H-pyrazol-5-yl)-1H-pyrazol-1-yl]piperidin-1-yl}azepane-1-carboxylate], at human M4 receptor, the pEC50 is 6.59 and the Emax amounted to 75%. Further, at human M2 receptor, the pEC50 is below 5.00 and the activation at 10 µM was 26%.

With `CCOC(=O)N1CCCC(N2CCC(c3cccn(C)c3=O)CC2)CC1` (stereo not shown) [Example 39, Ethyl 4-[4-(1-methyl-2-oxo-1,2-dihydropyridin-3-yl)piperidin-1-yl]azepane-1-carboxylate], at human M4 receptor, the pEC50 was 6.13 and the Emax came to 41%. Further, at human M2 receptor, the “M2 EC50” value is recorded as “No Response”.

As for `CCOC(=O)N1CCC(N2CCC(c3cccc(OCC)n3)CC2)CC1` [Example 72, Ethyl 4-[4-(6-ethoxypyridin-2-yl)piperidin-1-yl]piperidine-1-carboxylate], at human M4 receptor, the pEC50 is 6.57 and the Emax was determined as 63%. At human M2 receptor, the pEC50 was 5.69 and the “M2 % RE” value is given as 20%.

In the case of `CCOC(=O)N1CCCC(N2CCC(c3nccnc3OC)CC2)CC1` (stereo not shown) [Example 40, Ethyl 4-[4-(3-methoxypyrazin-2-yl)piperidin-1-yl]azepane-1-carboxylate], at human M4 receptor, the pEC50 is 6.85 and the Emax turned out to be 62%. Also, on human M2 receptor, the “M2 EC50” value is recorded as “No Response”.

In the case of `CCOC(=O)N1CCCC(N2CCC(c3cccnc3OC)CC2)CC1` (stereo not shown) [Example 35, Ethyl 4-[4-(2-methoxypyridin-3-yl)piperidin-1-yl]azepane-1-carboxylate], on human M4 receptor, the pEC50 was 7.52 and the Emax was 102%. Further, the “M2 EC50” value at human M2 receptor is reported as “No Response”.

As for `CCOC(=O)N1CCCC(N2CCC(n3ccc(C)n3)CC2)CC1` (stereo not shown) [Example 16, Ethyl 4-[4-(3-methyl-1H-pyrazol-1-yl)piperidin-1-yl]azepane-1-carboxylate], at human M4 receptor, the pEC50 was 6.40 and the Emax came out at 72%. Further, on human M2 receptor, the pEC50 is below 5.00 and the activation at 10 µM is 24%.

In the case of `CCOC(=O)N1CCCC(N2CCC(c3nnc(C(C)C)o3)CC2)CC1` (stereo not shown) [Example 15, Ethyl 4-(4-(5-isopropyl-1,3,4-oxadiazol-2-yl)piperidin-1-yl)azepane-1-carboxylate], on human M4 receptor, the negative logarithm of the EC50 (pEC50) is 5.89 and the Emax came to 44%. The “M2 EC50” value on human M2 receptor is reported as “No Response”.

For the compound `CCOC(=O)N1CCCC(N2CCC(n3cccn3)CC2)CC1` (stereo not shown) [Example 4, Ethyl 4-[4-(1H-pyrazol-1-yl)piperidin-1yl]azepane-1-carboxylate], on human M4 receptor, the pEC50 is 6.85 and the Emax worked out at 74%. For the same compound, the “M2 EC50” value at human M2 receptor is recorded as “No Response”.

As to `CCOC(=O)N1CCC(N2CCC(c3cccnc3OC)CC2)CC1` [Example 34, Ethyl 4-[4-(2-methoxypyridin-3-yl)piperidin-1-yl]piperidine-1-carboxylate], at human M4 receptor, the pEC50 was 7.05 and the Emax was found to be 90%. The “M2 EC50” value on human M2 receptor is “No Response”.

As to `CCOC(=O)N1CCC(N2CCC(c3ccnc(C)n3)CC2)CC1` [Example 36, Ethyl 4-[4-(2-methylpyrimidin-4-yl)piperidin-1-yl]piperidine-1-carboxylate], at human M4 receptor, the pEC50 is 5.17 and the Emax is 25%. Also, the “M2 EC50” value at human M2 receptor is recorded as “No Response”.

`CCOC(=O)N1CCC(N2CCC(c3cccc(OC)n3)CC2)CC1` [Example 32, Ethyl 4-[4-(6-methoxypyridin-2-yl)piperidin-1-yl]piperidine-1-carboxylate]: at human M4 receptor, the pEC50 was 6.66 and the Emax worked out at 73%. Besides, the “M2 EC50” value at human M2 receptor is on record as “No Response”.

Turning to `CCCn1ccnc1C1CCN(C2CCCN(C(=O)OCC)CC2)CC1` (stereo not shown) [Example 11, Ethyl 4-[4-(1-propyl-1H-imidazol-2-yl)piperidin-1-yl]azepane-1-carboxylate], on human M4 receptor, the pEC50 is 6.02 and the Emax came out at 41%. In addition, on human M2 receptor, the “M2 EC50” value is given as “No Response”.

With `CCOC(=O)N1CCCC(N2CCC(c3ccncc3OC)CC2)CC1` (stereo not shown) [Example 44, Ethyl 4-[4-(3-methoxypyridin-4-yl)piperidin-1-yl]azepane-1-carboxylate], at human M4 receptor, the pEC50 was 6.43 and the Emax stood at 52%. Moreover, the “M2 EC50” value at human M2 receptor is reported as “No Response”.

Turning to `CCOC(=O)N1CCC[C@@H](N2CCC(c3cccnc3OC)CC2)CC1` [Example 86, Ethyl (4R)-4-[4-(2-methoxypyridin-3-yl)piperidin-1-yl]azepane-1-carboxylate], on human M4 receptor, the pEC50 was 6.51 and the Emax came to 67%. For the same compound, the “M2 EC50” value on human M2 receptor was “No response”.

On to `CCOC(=O)N1CCCC(N2CCC(n3cccc3)CC2)CC1` (stereo not shown) [Example 3, Ethyl 4-[4-(1H-pyrrol-1-yl)piperidin-1yl]azepane-1-carboxylate], for which, at human M4 receptor, the negative-log EC50 (pEC50) was 6.48 and the Emax was determined as 59%. In addition, on human M2 receptor, the pEC50 is 5.81 and the “M2 % RE” value amounted to 38%.

As for `CCOC(=O)N1CCCC(N2CCC(c3cccnc3NC)CC2)CC1` (stereo not shown) [Example 62, Ethyl 4-{4-[2-(methylamino)pyridin-3-yl]piperidin-1-yl}azepane-1-carboxylate], at human M4 receptor, the negative logarithm of the EC50 (pEC50) is 6.44 and the Emax was determined as 53%. Moreover, the “M2 EC50” value at human M2 receptor is given as “No Response”.

On to `CCOC(=O)N1CCCC(N2CCC(c3cncc(OC)c3)CC2)CC1` (stereo not shown) [Example 45, Ethyl 4-[4-(5-methoxypyridin-3-yl)piperidin-1-yl]azepane-1-carboxylate], for which, at human M4 receptor, the pEC50 is 6.34 and the Emax stood at 25%. Further, on human M2 receptor, the “M2 EC50” value is recorded as “No Response”.

`CCOC(=O)N1CCCC(N2CCC(n3nccc3C(=O)NCC3CC3)CC2)CC1` (stereo not shown) [Example 24, Ethyl 4-(4-{5-[(cyclopropylmethyl)carbamoyl]-1H-pyrazol-1-yl}piperidin-1-yl)azepane-1-carboxylate]: on human M4 receptor, the negative-log EC50 (pEC50) is 5.86 and the Emax was found to be 45%. For the same compound, the “M2 EC50” value on human M2 receptor is on record as “No Response”.

On to `CCOC(=O)N1CCCC(N2CCC(c3cc(-c4cccs4)n[nH]3)CC2)CC1` (stereo not shown) [Example 17, Ethyl 4-{4-[3-(thiophen-2-yl)-1H-pyrazol-5-yl]piperidin-1-yl}azepane-1-carboxylate], for which, on human M4 receptor, the pEC50 was 6.09 and the Emax amounted to 50%. The “M2 EC50” value at human M2 receptor is listed as “No Response”.

`CCOC(=O)N1CCCC(N2CCC(n3cc(-c4ccc(Cl)cc4)cn3)CC2)CC1` (stereo not shown) [Example 8, Ethyl 4-{4-[4-(4-chlorophenyl)-1H-pyrazol-1-yl]piperidin-1-yl}azepane-1-carboxylate]: at human M4 receptor, the negative-log EC50 (pEC50) is 6.49 and the Emax turned out to be 59%. In addition, the “M2 EC50” value at human M2 receptor was “No Response”.

On to `CCOC(=O)N1CCC(N2CCC(c3cc(C)cnc3OCC)CC2)CC1` [Example 47, Ethyl 4-[4-(2-ethoxy-5-methylpyridin-3-yl)piperidin-1-yl]piperidine-1-carboxylate], for which, at human M4 receptor, the pEC50 is 6.80 and the Emax came out at 72%. The “M2 EC50” value at human M2 receptor was “No Response”.

As for `CCOC(=O)N1CCCC(N2CCC(c3cccnc3CC(C)C)CC2)CC1` (stereo not shown) [Example 77, Ethyl 4-{4-[2-(2-methylpropyl)pyridin-3-yl]piperidin-1-yl}azepane-1-carboxylate], on human M4 receptor, the pEC50 is 6.17 and the Emax was found to be 58%. Besides, the “M2 EC50” value at human M2 receptor is listed as “No Response”.

These data come from patent US10030012B2, “Piperidin-1-yl and azepin-1-yl carboxylates as muscarinic M4 receptor agonists” (Heptares Therapeutics Limited, priority 2013, dated 2018).
